7 compounds from PubChem BioAssay (NCI) can be followed below.

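Method: 48-hour compound exposure of cells in 96-well plates, five concentrations, linear interpolation of endpoints. At the GI50, growth is halved. TGI denotes the concentration required for complete inhibition of growth.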 Bounds are passed on as bounds.

Assay in all cases: DTP human tumour cell line panel, 48 h
For assay [1], the system named is 786-0 renal.
For assay [2], the system named is SK-OV-3 ovarian.
Assay [3] concerns NCI-H23 lung.
Assay [4] relates to DU-145 prostate.
Assay [5] has as its system HOP-92 NSCLC.
The test system of assay [6] is SF-539 CNS.
The subject of assay [7] is A549 NSCLC.
Assay [8] has as its system KM12 colon.
Assay [9] has as its system SK-MEL-2 melanoma.
Assay [10] deals with ACHN renal.

As for `CCN(CC)CCOc1ccc(Nc2ncc3cc(-c4c(Cl)cccc4Cl)c(=O)n(CCOC)c3n2)cc1`, the GI50 in [1] is 0.0324 µM; in assay [2] it was 0.064 µM; in [3], 0.806 µM; in assay [4] it was 0.217 µM; in [5], 0.0163 µM; in assay [6], 0.0557 µM. The GI50 in assay [7] was 0.498 µM; in assay [8], 0.655 µM; in [9] it was 0.493 µM; in [10], 0.0205 µM. In addition, the TGI in assay [1] is 5.28 µM; in [2] it was 7.35 µM; in assay [3] it was 3.95 µM; in assay [4] it was 2.8 µM; in [5] it was 0.322 µM; in assay [6], 0.821 µM. Further, the TGI in assay [7] came to 4.18 µM; in assay [8] it was 7.64 µM; in assay [9], 7.6 µM; in assay [10], 5.72 µM.
Regarding `OCCCCC#Cc1ccccc1C#Cc1ccccc1F`, the GI50 in assay [1] is 14.3 µM; in assay [2], 23.8 µM; in assay [3], 20.2 µM; in [4], 35.7 µM; in assay [5], 22 µM; in [6] it was 22 µM. Moreover, the GI50 in assay [7] was 15.7 µM; in [8], 18.8 µM; in [9] it was 23.9 µM; in [10], 25.5 µM. Also, the TGI in [1] was 29.8 µM; in [2] it was 58.4 µM; in assay [3], 43.1 µM; in assay [4] it was > 100 µM; in [5], 64.2 µM; in assay [6] it was 48.4 µM. Besides, the total growth inhibition concentration (TGI) was 34.5 µM in assay [7], 37.7 µM in [8], 52.5 µM in assay [9] and 53.6 µM in assay [10].
With `C=C1C(=O)O[C@H]2[C@H]1CC/C(CNC(=O)/C=C/c1cccc(OC)c1)=C\CC[C@@]1(C)O[C@@H]21`, the GI50 was 1.54 µM in assay [1]; 11.2 µM in [2]; 1.67 µM in assay [3]; 1.19 µM in assay [4]; 1.03 µM in assay [5]; 1.27 µM in assay [6]. Besides, the GI50 was 5.11 µM in assay [7], 5.8 µM in [8], 1.47 µM in assay [9] and 1.14 µM in assay [10]. For the same compound, the TGI amounted to 3.58 µM in [1]; 23.3 µM in assay [2]; 3.35 µM in [3]; 2.49 µM in [4]; 3.38 µM in assay [5]; 2.98 µM in [6]. The total growth inhibition concentration (TGI) in assay [7] came out at 20.3 µM; in assay [8] it was 20.5 µM; in [9], 3.31 µM; in assay [10] it was 2.67 µM.
On to `O=[N+]([O-])c1cc(O)c(O)cc1-c1cn2ccsc2n1`, for which the GI50 was 31 µM in [1]; > 100 µM in [2]; 67.5 µM in [3]; 17.2 µM in assay [4]; 97.2 µM in assay [5]; 71.1 µM in [6]. For the same compound, the GI50 in [7] was 41.3 µM; in [8] it was 40.4 µM; in assay [9], 57.1 µM; in [10], 42.6 µM. Besides, the TGI in assay [1], in assay [2], in [3], in assay [4], in assay [5] and in assay [6] was > 100 µM throughout. In addition, the TGI in [7], in assay [8], in assay [9] and in [10] was > 100 µM each time.
On to `Nc1ccc(-c2nc3ccccc3[nH]2)c(O)c1`, for which the GI50 in [1] is 47.4 µM; in [2], > 100 µM; in assay [3] it was 20 µM; in [4], 38.9 µM; in assay [5] it was 5.82 µM; in [6], 17.3 µM. Moreover, the GI50 was 35.3 µM in assay [7], 17.9 µM in [8], > 100 µM in assay [9] and 24.3 µM in assay [10]. The TGI in assay [1] is > 100 µM; in assay [2], > 100 µM; in [3], 66.3 µM; in [4] it was > 100 µM; in [5], 45.2 µM; in [6], 53.1 µM. Also, the concentration for total growth inhibition (TGI) in assay [7] was > 100 µM; in [8], 57.4 µM; in assay [9], > 100 µM; in [10], 82.9 µM.
For `O=c1[nH]cnc2c1nnn2C1OC(CO)C(O)C1O` (stereo not given), the GI50 in assay [1] was 2.58 µM; in assay [2], 0.375 µM; in assay [3], 4.25 µM; in [4], 0.548 µM; in assay [5], 1.66 µM; in assay [6] it was 4.06 µM. The GI50 in [7] was 29.1 µM; in assay [8] it was 3.89 µM; in assay [9], 12.3 µM; in assay [10], 1.04 µM. The TGI in [1] is > 100 µM; in assay [2], > 100 µM; in assay [3], > 100 µM; in assay [4], 14 µM; in assay [5], > 100 µM; in assay [6], 63.8 µM. Moreover, the concentration for total growth inhibition (TGI) in [7], in assay [8], in assay [9] and in assay [10] was > 100 µM throughout.
On to `CCCCCCCCCCCCCCCC(=O)OCC1OC(n2cnc3c(=S)nc(N)[nH]c32)C(OC(=O)CCCCCCCCCCCCCCC)C1OC(=O)CCCCCCCCCCCCCCC` (stereo not given), for which the GI50 in [1] was 2.46 µM; in [2] it was 1.55 µM; in [3] it was 12.9 µM; in [4], 1.98 µM; in assay [5], 3.85 µM; in assay [6] it was 6.95 µM. In addition, the GI50 in assay [7] is > 37.2 µM; in [8] it was 9.48 µM; in [9], 4.39 µM; in assay [10], 11.8 µM. Further, the TGI was > 50 µM in [1]; > 27.8 µM in [2]; > 50 µM in assay [3]; > 50 µM in [4]; > 50 µM in assay [5]; > 50 µM in [6]. For the same compound, the TGI in [7] is > 50 µM; in assay [8] it was > 50 µM; in assay [9] it was 28.4 µM; in assay [10] it was > 50 µM.
